Where two headings read alike, the source gives them in different places.
Assays:
[1] = test system: HCV genotype 1a (H77 strain) replicon in HUH-7 cells; assay: HCV replicon luciferase reporter assay, genotype 1a; type: cell-based; conditions: Hepatitis C virus, 72 h, genotype 1a replicon, 3 days incubation
How it was run: (§1)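 Twenty-point, threefold compound titrations (0.5% DMSO) were incubated 3 days at 37 °C with 3.0×10^3 HUH-7 cells/well in 4% FCS. The cells stably carried luciferase replicons: genotype 1b Con1 (S1179I) or 1a H77 (NS3 P1496L, NS5A S2204I). Renilla signal was read after 2 h with 7.5 μM EnduRen, and EC50 was taken from a four-parameter logistic fit. Cytotoxicity (CC50) was measured by Cell Titer-Blue, 8 h.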

[2] = test system: HCV genotype 1b (Con1) replicon in HUH-7 cells; assay: HCV replicon luciferase reporter assay, genotype 1b; type: cell-based; conditions: Hepatitis C virus, 72 h, genotype 1b replicon, 3 days incubation
How it was run: as §1

Row | SMILES | EC50 ([1]; read-out: LE_1a (EC50, range)) | EC50 ([2]; read-out: LE_1b (EC50, range)) | EC50 ([1]; read-out: LE_1a (EC50)) | EC50 ([2]; read-out: LE_1b (EC50))
1 | COC[C@@H]1C[C@H](C)CC/C=C\[C@@H]2C[C@@]2(C(=O)NS(=O)(=O)C2(CF)CC2)NC(=O)[C@@H]2C[C@@H](Oc3nc4cc(OC)ccc4nc3C(F)(F)F)CN2C(=O)[C@H]1NC(=O)OC(C)(C)C(F)(F)F [Compound 1037, 1,1,1-trifluoro-2-methylpropan-2-yl ((2R,6S,7R,9R,13aS,14aR,16aS,Z)-14a-(((1-(fluoromethyl)cyclopropyl)sulfonyl)carbamoyl)-2-((7-methoxy-3-(trifluoromethyl)quinoxalin-2-yl)oxy)-7-(methoxymethyl)-9-methyl-5,16-dioxo-1,2,3,5,6,7,8,9,10,11,13a,14,14a,15,16,16a-hexadecahydrocyclopropa[e]pyrrolo[1,2-a][1,4]diazacyclopentadecin-6-yl)carbamate] | 1.01 to 5 nM | 1.01 to 5 nM | – | –
2 | COC[C@@H]1C[C@@H](C)CC/C=C\[C@@H]2C[C@@]2(C(=O)NS(=O)(=O)C2(C)CC2)NC(=O)[C@@H]2C[C@@H](Oc3nc4cc(OC)ccc4nc3C(F)(F)F)CN2C(=O)[C@H]1NC(=O)OC(C)(C)C [Compound 1027, tert-butyl ((2R,6S,7R,9S,13aS,14aR,16aS,Z)-2-((7-methoxy-3-(trifluoromethyl)quinoxalin-2-yl)oxy)-7-(methoxymethyl)-9-methyl-14a-(((1-methylcyclopropyl)sulfonyl)carbamoyl)-5,16-dioxo-1,2,3,5,6,7,8,9,10,11,13a,14,14a,15,16,16a-hexadecahydrocyclopropa[e]pyrrolo[1,2-a][1,4]diazacyclopentadecin-6-yl)carbamate] | 5.01 to 35 nM | 1.01 to 5 nM | – | –
3 | COC[C@@H]1C[C@@H](C)CC/C=C\[C@@H]2C[C@@]2(C(=O)NS(=O)(=O)C2CC2)NC(=O)[C@@H]2C[C@@H](Oc3ncc(OC)c4ccccc34)CN2C(=O)[C@H]1NC(=O)OC(C)(C)C [Compound 1004, tert-butyl ((2R,6S,7R,9S,13aS,14aR,16aS,Z)-14a-((cyclopropylsulfonyl)carbamoyl)-2-((4-methoxyisoquinolin-1-yl)oxy)-7-(methoxymethyl)-9-methyl-5,16-dioxo-1,2,3,5,6,7,8,9,10,11,13a,14,14a,15,16,16a-hexadecahydrocyclopropa[e]pyrrolo[1,2-a][1,4]diazacyclopentadecin-6-yl)carbamate] | 1.01 to 5 nM | 1.01 to 5 nM | – | –
4 | COC[C@@H]1C[C@@H](C)CC/C=C\[C@@H]2C[C@@]2(C(=O)NS(=O)(=O)C2CC2)NC(=O)[C@@H]2C[C@@H](Oc3nccc4cc(OC)ccc34)CN2C(=O)[C@H]1NC(=O)OC(C)(C)C(F)(F)F [Compound 1018, 1,1,1-trifluoro-2-methylpropan-2-yl ((2R,6S,7R,9S,13aS,14aR,16aS,Z)-14a-((cyclopropylsulfonyl)carbamoyl)-2-((6-methoxyisoquinolin-1-yl)oxy)-7-(methoxymethyl)-9-methyl-5,16-dioxo-1,2,3,5,6,7,8,9,10,11,13a,14,14a,15,16,16a-hexadecahydrocyclopropa[e]pyrrolo[1,2-a][1,4]diazacyclopentadecin-6-yl)carbamate] | 1.01 to 5 nM | 1.01 to 5 nM | – | –
5 | COC[C@@H]1C[C@H](C)CC/C=C\[C@@H]2C[C@@]2(C(=O)NS(=O)(=O)C2CC2)NC(=O)[C@@H]2C[C@@H](Oc3nccc4cc(OC)ccc34)CN2C(=O)[C@H]1NC(=O)OC(C)(C)C(F)(F)F [Compound 1019, 1,1,1-trifluoro-2-methylpropan-2-yl ((2R,6S,7R,9R,13aS,14aR,16aS,Z)-14a-((cyclopropylsulfonyl)carbamoyl)-2-((6-methoxyisoquinolin-1-yl)oxy)-7-(methoxymethyl)-9-methyl-5,16-dioxo-1,2,3,5,6,7,8,9,10,11,13a,14,14a,15,16,16a-hexadecahydrocyclopropa[e]pyrrolo[1,2-a][1,4]diazacyclopentadecin-6-yl)carbamate] | 1.01 to 5 nM | 0.51 to 1 nM | – | –
6 | COC[C@@H]1C[C@H](C)CC/C=C\[C@@H]2C[C@@]2(C(=O)NS(=O)(=O)C2(C)CC2)NC(=O)[C@@H]2C[C@@H](Oc3ncc(OC)c4ccccc34)CN2C(=O)[C@H]1NC(=O)OC(C)(C)C(F)(F)F [Compound 1016, 1,1,1-trifluoro-2-methylpropan-2-yl ((2R,6S,7R,9R,13aS,14aR,16aS,Z)-2-((4-methoxyisoquinolin-1-yl)oxy)-7-(methoxymethyl)-9-methyl-14a-(((1-methylcyclopropyl)sulfonyl)carbamoyl)-5,16-dioxo-1,2,3,5,6,7,8,9,10,11,13a,14,14a,15,16,16a-hexadecahydrocyclopropa[e]pyrrolo[1,2-a][1,4]diazacyclopentadecin-6-yl)carbamate] | 0.51 to 1 nM | 0.1 to 0.5 nM | 0.84 nM | 0.26 nM
7 | COC[C@@H]1CCCC/C=C\[C@@H]2C[C@@]2(C(=O)NS(=O)(=O)C2(C)CC2)NC(=O)[C@@H]2C[C@@H](Oc3nccc4cc(OC)ccc34)CN2C(=O)[C@H]1NC(=O)OC(C)(C)C(F)(F)F [Compound 1001, 1,1,1-trifluoro-2-methylpropan-2-yl ((2R,6S,7R,13aS,14aR,16aS,Z)-2-((6-methoxyisoquinolin-1-yl)oxy)-7-(methoxymethyl)-14a-(((1-methylcyclopropyl)sulfonyl)carbamoyl)-5,16-dioxo-1,2,3,5,6,7,8,9,10,11,13a,14,14a,15,16,16a-hexadecahydrocyclopropa[e]pyrrolo[1,2-a][1,4]diazacyclopentadecin-6-yl)carbamate] | 1.01 to 5 nM | 0.51 to 1 nM | – | –
8 | COC[C@@H]1C[C@@H](C)CC/C=C\[C@@H]2C[C@@]2(C(=O)NS(=O)(=O)C2(C)CC2)NC(=O)[C@@H]2C[C@@H](Oc3ncc(OC)c4ccccc34)CN2C(=O)[C@H]1NC(=O)OC(C)(C)C [Compound 1011, tert-butyl ((2R,6S,7R,9S,13aS,14aR,16aS,Z)-2-((4-methoxyisoquinolin-1-yl)oxy)-7-(methoxymethyl)-9-methyl-14a-(((1-methylcyclopropyl)sulfonyl)carbamoyl)-5,16-dioxo-1,2,3,5,6,7,8,9,10,11,13a,14,14a,15,16,16a-hexadecahydrocyclopropa[e]pyrrolo[1,2-a][1,4]diazacyclopentadecin-6-yl)carbamate] | 1.01 to 5 nM | 1.01 to 5 nM | – | –
9 | COC[C@@H]1C[C@@H](C)CC/C=C\[C@@H]2C[C@@]2(C(=O)NS(=O)(=O)C2(C)CC2)NC(=O)[C@@H]2C[C@@H](Oc3nc4cc(OC)ccc4nc3C(C)C)CN2C(=O)[C@H]1NC(=O)OC(C)(C)C [Compound 1029, tert-butyl ((2R,6S,7R,9S,13aS,14aR,16aS,Z)-2-((3-isopropyl-7-methoxyquinoxalin-2-yl)oxy)-7-(methoxymethyl)-9-methyl-14a-(((1-methylcyclopropyl)sulfonyl)carbamoyl)-5,16-dioxo-1,2,3,5,6,7,8,9,10,11,13a,14,14a,15,16,16a-hexadecahydrocyclopropa[e]pyrrolo[1,2-a][1,4]diazacyclopentadecin-6-yl)carbamate] | 1.01 to 5 nM | 0.51 to 1 nM | 1.78 nM | 0.63 nM
10 | COC[C@@H]1C[C@@H](C)CC/C=C\[C@@H]2C[C@@]2(C(=O)NS(=O)(=O)C2(C)CC2)NC(=O)[C@@H]2C[C@@H](Oc3nccc4cc(OC)ccc34)CN2C(=O)[C@H]1NC(=O)OC(C)(C)C(F)(F)F [Compound 1015, 1,1,1-trifluoro-2-methylpropan-2-yl ((2R,6S,7R,9S,13aS,14aR,16aS,Z)-2-((6-methoxyisoquinolin-1-yl)oxy)-7-(methoxymethyl)-9-methyl-14a-(((1-methylcyclopropyl)sulfonyl)carbamoyl)-5,16-dioxo-1,2,3,5,6,7,8,9,10,11,13a,14,14a,15,16,16a-hexadecahydrocyclopropa[e]pyrrolo[1,2-a][1,4]diazacyclopentadecin-6-yl)carbamate] | 1.01 to 5 nM | 1.01 to 5 nM | – | –
11 | COC[C@@H]1C[C@H](C)CC/C=C\[C@@H]2C[C@@]2(C(=O)NS(=O)(=O)C2(C)CC2)NC(=O)[C@@H]2C[C@@H](Oc3nc4cc(OC)ccc4nc3C(F)(F)F)CN2C(=O)[C@H]1NC(=O)OC(C)(C)C [Compound 1028, tert-butyl ((2R,6S,7R,9R,13aS,14aR,16aS,Z)-2-((7-methoxy-3-(trifluoromethyl)quinoxalin-2-yl)oxy)-7-(methoxymethyl)-9-methyl-14a-(((1-methylcyclopropyl)sulfonyl)carbamoyl)-5,16-dioxo-1,2,3,5,6,7,8,9,10,11,13a,14,14a,15,16,16a-hexadecahydrocyclopropa[e]pyrrolo[1,2-a][1,4]diazacyclopentadecin-6-yl)carbamate] | 0.51 to 1 nM | 0.1 to 0.5 nM | – | –
12 | COC[C@@H]1C[C@H](C)CC/C=C\[C@@H]2C[C@@]2(C(=O)NS(=O)(=O)C2(C)CC2)NC(=O)[C@@H]2C[C@@H](Oc3nc4cc(OC)ccc4nc3C(C)C)CN2C(=O)[C@H]1NC(=O)OC(C)(C)C [Compound 1030, tert-butyl ((2R,6S,7R,9R,13aS,14aR,16aS,Z)-2-((3-isopropyl-7-methoxyquinoxalin-2-yl)oxy)-7-(methoxymethyl)-9-methyl-14a-(((1-methylcyclopropyl)sulfonyl)carbamoyl)-5,16-dioxo-1,2,3,5,6,7,8,9,10,11,13a,14,14a,15,16,16a-hexadecahydrocyclopropa[e]pyrrolo[1,2-a][1,4]diazacyclopentadecin-6-yl)carbamate] | 35 to 620 nM | 5.01 to 35 nM | – | –

From US9580463B2 (BRISTOL-MYERS SQUIBB COMPANY, priority 2013, dated 2017)
